Test results as given in patent US10780139B1, “Hypericum revolutum extract as a vasodilator” (King Abdulaziz University, priority 2020, dated 2020).

Key:
[1] = tested on: PE pre-contracted isolated aorta; test: vasodilating activity, isolated artery technique (PE-precontracted isolated aorta); parameters: species or system Wistar rats; conditions: for vasodilation of PE precontracted isolated aortae: isolated compounds 1-10 μM cumulative, vs time control, p<0.05, FIG. 7-8
Method: Male Wistar rats 6-8 weeks old (180-200 g) (King Fahd Medical Research Center, King Abdulaziz University, Jeddah, Saudi Arabia) were used in this study. Clear polypropylene cages containing 4 rats each were used to house the animals and provided access to purified water and standard rodent pellets. The animal housing conditions applied were constant involving alternating 12 hours light and dark, a temperature of 22±3° C., a relative humidity of 50-60%, and adequate ventilation. Experimental protocol was approved by the Research Ethical Committee, Faculty of Pharmacy, King Abdulaziz University, Jeddah, Saudi Arabia (approval number 126-1439) and was conducted in accordance with the Saudi Arabia Research Bioethics and Regulations.
All animals used for the purpose of this study received a standard pellet diet and drinking water. Animals were killed by decapitation with rodent guillotine and the descending thoracic aorta was carefully excised and cleaned from fat and connective tissue.
(§1) The vasodilating activities of the methanol extract, fractions, and isolated compounds were studied using the isolated artery technique as previously described (El-Bassossy et al., 2013; El-Bassossy et al., 2016). Briefly, aorta was excised, cleaned of any fats and connective tissue, and cut into 3 mm rings. Each ring was suspended in channels filled with 25 ml of Krebs Henseleit buffer (118 mM NaCl, 4.8 mM KCl, 2.5 mM CaCl2), 1.2 mM MgSO4, 1.2 mM KH2PO4, 25 mM NaHCO3, and 11.1 mM glucose) maintained at 37° C. and continuously aerated with gas consisting of 95% oxygen and 5% carbon dioxide. The buffer solution in the channels was changed every 30 minutes.
(§2) The aortic rings were left to equilibrate for 20 minutes at a resting tension of 1500 mg±50. Primary contraction and relaxation of the aorta were then performed by adding PE (10^−5 M) followed by ACh […]. After the tension was returned to resting state, cumulative concentrations of the total extract, fractions (1-10 μg/ml) or the pure isolated compounds (1-10 μM) were added to the organ bath containing the isolated aortae precontracted with PE (10 μM). The decrease in tension was measured as a measure of vasodilation activities.
(§3) In all experiments, similar PE-precontraction tension was achieved before testing the vasodilating responses.

[2] = tested on: PE pre-contracted endothelium-denuded aorta; test: vasodilating activity in endothelium-denuded PE-precontracted isolated aorta; parameters: species or system Wistar rats; conditions: isolated compounds, 10 μM, p<0.05; FIG. 7-8
Method: as §1, §2
In another set of experiments, endothelium was mechanically denuded in order to investigate its role in the vasodilation effect.
as §3

[3] = tested on: vascular NO production (isolated aorta); test: NO production from isolated aorta, fluorescence probe DAF-FM; parameters: species or system Wistar rats; conditions: 10 μM; DAF-FM 2.5 μM; 37° C.; FIG. 9
Method: Induction of intracellular NO production from the isolated aorta by the total extract, fraction I or the pure isolated compounds was investigated using the fluorescence probe DAF-FM as described in previous work with some modifications (Ghareib et al., 2015). Similar to previous technique, the thoracic aorta was excised, cleaned of fats, and cut into approximately 6 mm pieces. Each piece was added to a separate well in a 96-well black plate, kept in dim light, containing KHB/DAF-FM (2.5 μM) mixture (37° C.) and prepared directly before commencement of the procedure. After 3 minutes, 100 μl were carefully drawn and transferred to the adjacent column of wells after which 10 μM ACh was added to one of the aortic segments and 10 μg/ml of the total extract or fraction I or 10 μM of the pure isolated compounds was added to the other wells. Again after 3 minutes, 100 μl were drawn from the wells with the aortae and transferred to the next column of wells. For the blank, a row was kept without an aorta for each concentration of ACh was treated in the same manner. The fluorescence intensity for the withdrawn volumes (and not the column containing the aortae) was then measured at λex=485 nm and […] with the use of Monochromator SPECTRAMAX® M3 plate reader (Molecular Devices, Sunnyvale, Calif., USA).

[4] = ROS scavenging ability, DPPH; conditions: DPPH 240 μM; 1, 3 and 10 μM; 10-minute reaction; FIG. 10
Method: The reactive oxygen species (ROS) scavenging ability of fraction I or pure isolated compounds was studied as previously reported with some modifications (Tarkhan et al., 2019). In a 96-well clear plate, the fraction I (1-10 μg/ml) or pure isolated compounds (1-10 μM) in methanol was added to DPPH solution (240 μM) in methanol/tris (1:1 v/v). For the time control (C), methanol was used instead of the fraction or compounds. DPPH was prepared immediately before addition to the plate. The absorbance was measured at 520 nm every minute for 10 minutes with the use of Monochromator SPECTRAMAX® M3 plate reader (Molecular Devices, Sunnyvale, Calif., USA).

Compound | vasodilation of PE precontracted isolated aortae [1] | vasodilation of PE-precontracted isolated aortae ([1]; maximal extent reached, 1-10 μM, FIG. 7B) [%] | effect of endothelial denudation on vasodilation activity [2] | vascular NO production (DAF-FM fluorescence) compared with control [3] | DPPH free radical scavenging activity [4]
CC(C)=CCC(=O)C1CC23CC(Cl)C(C)(C)OC2(C(O)C=C(C)C)C(=O)C(C(=O)C(C)C)(C3=O)C1(C)C (stereo not shown) [compound 2, 3-chloro-9a-(1-hydroxy-3-methylbut-2-en-1-yl)-8-isobutyryl-2,2,7,7-tetramethyl-6-(4-methylpent-3-enoyl)hexahydro-2H-4a,8-methanocyclohepta[b]pyran-9,10(9aH)-dione] | reached statistical significance at concentrations of 3 and 10 μM | 50 | completely blocked the vasodilation activity | induced NO production that reached statistical significance | 
COc1cc2c(=O)c3ccccc3oc2c(OC)c1OC [compound 5, 2,3,4-trimethoxy xanthone] | concentration dependent vasodilation |  | blocked the vasodilation activity |  | significant free radical scavenging activity
euxanthone [compound 4] | did not show any significant vasodilation |  | did not have any significant effect |  | 
CC[C@H](CC[C@@H](C)[C@H]1CC[C@H]2[C@@H]3CC=C4C[C@@H](O)CC[C@]4(C)[C@H]3CC[C@]12C)C(C)C [compound 3, β-sitosterol] | concentration dependent vasodilation |  | completely blocked the vasodilation activity | induced NO production that reached statistical significance | 
CCC(C)C(=O)c1c(O)c(C)c(OCC=C(C)C)c(C(=O)CC(C)C)c1O (stereo not shown) [compound 1, 3,5-dihydroxy-6-methyl-1-[(3-methylbut-2-en-1-yl)oxy]-2-(3-methylbutyryl)-4-(2-methylbutyryl)-benzene] | concentration dependent vasodilation |  |  |  | 
